This note sets out measurements from patent publication US20210128529A1, “DRUG CONTAINING PYRAZOLONE DERIVATIVE” (NOBELPHARMA CO., LTD., priority 2017, published 2021).

Values after ≈ are worked out from the molar mass of the structure shown.

This data set can be described thus: Saturation solubility of edaravone in water. The data set is classed as physicochemical.

Take `CC1=NN(c2ccccc2)C(=O)C1` [edaravone, 3-Methyl-1-phenyl-2-pyrazolin-5-one]: the concentration in solution (solubility) came to 2000 µg/mL (≈ 11.5 mM).
